Assays:
EVH-1 domain [1] = experiment: Binding affinity to EVH-1 domain by isothermal titration calorimetry (ITC), Table 1; conditions: for Kd / ITC ΔG: ITC; for Kd: EVH-1 domain; for ITC ΔG: free enthalpy of protein-ligand complex
Description: (§1) The substitution of the diproline units of the FPPPP motif with the Fmoc-ProMs was carried out. The binding affinities of the ligands to the domain were subsequently determined by means of isothermal titration calorimetry (ITC) on the basis of the dissociation constant (Kd) or the free enthalpy (ΔG) of the protein-ligand complexes. The results of the measurements were additionally checked by means of fluorescence titration (FT). A stronger binding of the respective ligand is expressed by a smaller value for Kd or a more negative value for ΔG. The correlation between the dissociation constant (Kd) and the free enthalpy (ΔG) is illustrated with the following equations: […]

EVH-1 domain [2] = experiment: Binding affinity to EVH-1 domain by fluorescence titration (FT), Table 1; conditions: for Kd: EVH-1 domain; for FT ΔG: free enthalpy of protein-ligand complex
Description: as §1

EnaH-EVH1 [3] = biological target: T1, EnaH-EVH1 (Homo sapiens, UniProt Q8N8S7); experiment: Binding affinity by FT, EnaH-EVH1
T1 construct: VASP-EVH-1, EnaH-EVH-1 and EVL-EVH-1 domain
T1 sequence (Q8N8S7 1-111 limits assumed): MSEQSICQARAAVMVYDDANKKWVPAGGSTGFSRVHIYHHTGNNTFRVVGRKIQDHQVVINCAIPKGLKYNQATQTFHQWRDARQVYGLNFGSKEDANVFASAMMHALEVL
Description: as §1
(§2) A further analysis to test the dissociation constant (Kd) of a variety of other compounds was carried out by means of FT and ITC.

EVL-EVH1 [4] = biological target: T2, EVL-EVH1 (Homo sapiens, UniProt Q9UI08); experiment: Binding affinity by ITC, EVL-EVH1
T2 construct: VASP-EVH-1, EnaH-EVH-1 and EVL-EVH-1 domain
T2 sequence (Q9UI08 1-112 limits assumed): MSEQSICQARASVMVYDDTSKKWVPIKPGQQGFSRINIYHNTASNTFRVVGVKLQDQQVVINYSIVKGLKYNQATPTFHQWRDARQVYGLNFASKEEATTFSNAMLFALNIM
Description: as §1, §2

VASP-EVH1 [5] = biological target: T3, VASP-EVH1 (Homo sapiens, UniProt P50552); experiment: Binding affinity by ITC, VASP-EVH1
T3 construct: VASP-EVH-1, EnaH-EVH-1 and EVL-EVH-1 domain
T3 sequence (P50552 2-113 limits assumed): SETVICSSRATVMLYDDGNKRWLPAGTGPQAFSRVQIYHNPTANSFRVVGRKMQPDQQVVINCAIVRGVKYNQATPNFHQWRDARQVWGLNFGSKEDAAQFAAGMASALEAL
Description: as §1, §2

EVL-EVH1 [6] = biological target: T2, EVL-EVH1; experiment: Binding affinity by FT, EVL-EVH1
Description: as §1, §2

ena/VASP-EVH1 = experiment: Inhibition of ena/VASP-EVH1-mediated protein-protein interactions, affinity for the target (statements in words); format: binding; conditions: result in words
VASP-EVH1 [7] = biological target: T3, VASP-EVH1; experiment: Binding affinity by FT, VASP-EVH1
Description: as §1, §2

EnaH-EVH1 [8] = biological target: T1, EnaH-EVH1; experiment: Binding affinity by ITC, EnaH-EVH1
Description: as §1, §2

in vitro [9] = format: in vitro ADME; conditions: for Plasma stability, % remaining (Tlast 240 min): 4 h; for half-life: plasma
Description: An in vitro assay was performed in the plasma of mice and humans.

in vitro [10] = conditions: mouse, mouse plasma
in vitro [11] = conditions: human, human plasma
in vitro [12] = format: in vitro ADME; conditions: mouse, microsomes
in vitro [13] = format: in vitro ADME; conditions: human, microsomes
cells = experiment: Cellular toxicity; format: cell-based; conditions: result in words
Excerpt: FIG. 2: Cellular toxicity of the compound in accordance with Formula III.
The low or absent cellular toxicity likewise constitutes a surprising and advantageous property of the compounds. The inventive compounds bind to the target receptor not only with very low dissociation constants, but also with high specificity. For medical use of the compounds this is to be considered as an advantage.

[14] = system: MDA MB 231 breast cancer cells; experiment: Matrigel migration assay (chemotaxis and motility); format: cell-based; conditions: relative to the baseline value (DMSO/no FBS gradient)
Description: FIG. 1: Inhibition of the chemotaxis and motility of highly invasive tumor cells in a matrigel migration assay.
Cell culture experiments were performed with MDA MB 231 breast cancer cells.
Example Compound III inhibits the migration of MDA MB 231 breast cancer cells by more than 90% relative to the baseline value (DMSO/no FBS gradient) (FIGS. 1 A and B).

VASP-EVH1 [15] = biological target: T3, VASP-EVH1; experiment: Binding data to VASP-EVH1 (text, method not stated); conditions: text b160
target cells = experiment: Cell experiments: absorption of the compound by target cells; format: cell-based; conditions: ester derivative versus carboxylic acid ligand; result in words
Excerpt: Within the framework of cell experiments it could further be shown that, by replacing the carboxylic acid ligand with the ester derivative (NBD-Phe(2-CI)-[ProM-2][ProM-1]-OEt), the ability of the compound to be absorbed by the target cells could be improved. The absorption of the substance in the cell could thus be increased, without loss of the advantageous binding properties.

With `CC(=O)NC(Cc1ccccc1Cl)C(=O)N1CCCC12C=CC1CCC(C(=O)N3CCC4C=CC5CCC(C(=O)O)N5C(=O)C43)N1C2=O` (stereo not shown) [Ac-Phe(2-Cl)-[ProM-2][ProM-1]-OH, Ac-Phe(2-CI)-[ProM-2]-[ProM-1]-OH] the Kd (EVH-1 domain [1]) was 3.8 µM, the “ITC ΔG” value (EVH-1 domain [1]) was -7.41 kcal/mol and the Kd (EVH-1 domain [2]) was 2.7 µM. The “FT ΔG” value (EVH-1 domain [2]) was -7.6 kcal/mol and the “improvement of the binding affinity by a factor (FT)” value (EVH-1 domain [2]; in comparison to Ac-Phe(2-CI)-PP[ProM-1]-OH) was 1.2.
In the case of `CC(=O)NC(Cc1ccccc1Cl)C(=O)N1CCCC12C=CC1CCC(C(=O)N3CCC4C=CC5C(C)CC(C(=O)O)N5C(=O)C43)N1C2=O` (stereo not shown) [Ac-Phe(2-Cl)-[ProM-2][ProM-9]-OH], the Kd (EVH-1 domain [1]) is reported as 0.69 µM, the “ITC ΔG” value (EVH-1 domain [1]) is reported as -8.41 kcal/mol and the “free enthalpy (Gibbs free energy) gain ΔΔG over the ligand optimization” value (EVH-1 domain [1]; determined by means of ITC, overall progression from the wild-type ligand) is reported as -3.8 kcal/mol. For the same compound, the Kd (EVH-1 domain [2]) was 0.28 µM and the “FT ΔG” value (EVH-1 domain [2]) was -8.94 kcal/mol.
For `CCOC(=O)[C@@H]1C[C@@H](CC)[C@@H]2C=C[C@H]3CCN(C(=O)[C@@H]4CC[C@H]5C=C[C@]6(CCCN6C(=O)[C@H](Cc6ccccc6Cl)NC(C)=O)C(=O)N54)[C@@H]3C(=O)N12` [Ac[2-Cl—F][ProM-2][ProM-13]-OEt, Ac-Phe(2-CI)-[ProM-2][ProM-13]-OEt], the Kd (EnaH-EVH1 [3]) was 0.18 µM, the Kd (EVL-EVH1 [4]) was 0.28 µM and the Kd (VASP-EVH1 [5]) was 0.49 µM. The Kd (EVL-EVH1 [6]) was 0.13 µM, the “affinity for the target” value (ena/VASP-EVH1) was “particularly strong affinity” and the Kd (VASP-EVH1 [7]) was 0.4 µM. For the same compound, the Kd (EnaH-EVH1 [8]) was 0.31 µM.
In the case of `CCOC(=O)C1CCC2C=CC3CCN(C(=O)C4CCC5C=CC6(CCCN6C(=O)C(Cc6ccccc6Cl)NC(C)=O)C(=O)N54)C3C(=O)N21` (stereo not shown) [Compound 4D, Ac-Phe(2-CI)-[ProM-2][ProM-1]-OEt], the Kd (EnaH-EVH1 [3]) is reported as 4.1 µM, the “Plasma stability, % remaining (Tlast 240 min)” value (shortened to “Plasma stability, % remaining”) (in vitro [9]; human) is reported as 95.5% and the half-life (in vitro [9]; human) is reported as over 4 h. The “Plasma stability, % remaining” value (in vitro [9]; mouse) was 87.4%, the half-life (in vitro [9]; mouse) was over 4 h and the fraction unbound (in vitro [10]) was 0.981. The Kd (EVL-EVH1 [4]) was 5.8 µM, the fraction unbound (in vitro [11]) was 0.924 and the Kd (VASP-EVH1 [5]) was 9.4 µM. For the same compound, the Kd (EVL-EVH1 [6]) was 4.1 µM, the half-life (in vitro [12]) was over 1 h and the microsomal CLint (in vitro [12]) was 35.6 µL/min/mg. For the same compound, the Kd (VASP-EVH1 [7]) was 6.2 µM, the Kd (EnaH-EVH1 [8]) was 7.8 µM and the half-life (in vitro [13]) was over 1 h. For the same compound, the microsomal CLint (in vitro [13]) was 26.4 µL/min/mg.
With `CCOC(=O)[C@@H]1C[C@@H](C)[C@@H]2C=C[C@H]3CCN(C(=O)[C@@H]4CC[C@H]5C=C[C@]6(CCCN6C(=O)[C@H](Cc6ccccc6Cl)NC(C)=O)C(=O)N54)[C@@H]3C(=O)N12` [Compound III] the “inhibition of ena/VASP-EVH1-mediated protein-protein interactions” value (ena/VASP-EVH1) was “selectively inhibit”, the cellular toxicity (cells) was “non-toxic to cells” and the “inhibition of migration of MDA MB 231 breast cancer cells” value [14] was “more than 90%”. It also gave a Kd (VASP-EVH1 [15]) of 0.28 µM.
In the case of `CC(=O)N[C@@H](CO)C(=O)N[C@@H](Cc1ccccc1)C(=O)N[C@@H](CCC(=O)O)C(=O)N[C@@H](Cc1ccccc1)C(=O)N1CCC[C@H]1C(=O)N1CCC[C@H]1C(=O)N1CCC[C@H]1C(=O)N1CCC[C@H]1C(=O)N[C@H](C(=O)N[C@@H](CCC(=O)O)C(=O)N[C@@H](CC(=O)O)C(=O)N[C@@H](CCC(=O)O)C(=O)N[C@@H](CC(C)C)C(N)=O)[C@@H](C)O` [reference compound], the Kd (EVH-1 domain [1]) is reported as 20 µM.
In the case of “Ac-Phe(2-CI)-[ProM-2][ProM-1]-NH2 [Compound 4C]”, the “Plasma stability, % remaining” value (in vitro [9]; human) is reported as 80.3%, the “Plasma stability, % remaining” value (in vitro [9]; mouse) is reported as 94.7% and the “Liver microsomal stability Clint” value (in vitro [12]) is reported as 34.0 μl/min/mg protein. The “Liver microsomal stability t½” value (in vitro [12]) was over 1 h, the “Liver microsomal stability Clint” value (in vitro [13]) was 11.6 μl/min/mg protein and the “Liver microsomal stability t½” value (in vitro [13]) was over 1 h.
In the case of Ac-Phe(2-Cl)-PPPP-OH, the Kd (EVH-1 domain [1]) is reported as 18 µM, the “ITC ΔG” value (EVH-1 domain [1]) is reported as -6.45 kcal/mol and the Kd (EVH-1 domain [2]) is reported as 13 µM. For the same compound, the “FT ΔG” value (EVH-1 domain [2]) was -6.64 kcal/mol.
For Ac-Phe(2-Cl)-PP[ProM-1]-OH, the Kd (EVH-1 domain [1]) was 14.1 µM, the “ITC ΔG” value (EVH-1 domain [1]) was -6.62 kcal/mol and the Kd (EVH-1 domain [2]) was 3.2 µM. The “FT ΔG” value (EVH-1 domain [2]) was -7.5 kcal/mol.
With Ac-Phe(2-Cl)-PP[ProM-9]-OH the Kd (EVH-1 domain [1]) was 8 µM, the “ITC ΔG” value (EVH-1 domain [1]) was -6.96 kcal/mol and the Kd (EVH-1 domain [2]) was 0.4 µM. The “FT ΔG” value (EVH-1 domain [2]) was -8.77 kcal/mol.
In the case of Ac-Phe(2-Cl)-[ProM-2][ProM-4]-OH, the Kd (EVH-1 domain [1]) is reported as 9.7 µM, the “ITC ΔG” value (EVH-1 domain [1]) is reported as -6.84 kcal/mol and the Kd (EVH-1 domain [2]) is reported as 1.6 µM. The “FT ΔG” value (EVH-1 domain [2]) was -7.91 kcal/mol.
For “NBD-Phe(2-CI)-[ProM-2]-[ProM-1]-OEt [NBD-Phe(2-CI)-[ProM-2][ProM-1]-OEt]”, the “ability to be absorbed by the target cells” value (target cells) was “improved”.

From patent US10344053B2, “Inhibitors for inhibiting tumor metastasis” (Forschungsverbund Berlin e.V., priority 2014, dated 2019)
